Data from patent US20020160932A1, “Uncompetitive inhibitors of helicase-primase” (priority 2000, published 2002).
Like-named read-outs stand apart in the source and are kept apart here.

Experiments:
Wild-type HSV-1 (F) = experiment: in vitro viral replication assay, wild-type HSV-1 (F); assay type: cell-based, herpes simplex virus 1; details: for SI Wild-type HSV-1 (F): selectivity index SI=(CC50/IC50);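 on SI Wild-type HSV-1 (F): ratio of CC50 to antiviral IC50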
[1] = system: Acyclovir-resistant HSV-1 (F) mutants; experiment: microbe, parasite or virus in culture; assay type: cell-based, herpes simplex virus 1
HSV-2 G = experiment: in vitro viral replication assay, human HSV-2 G; assay type: cell-based, herpes simplex virus 2; details: for IC50: in vitro viral replication assay; for SI human HSV-2 G: selectivity index SI=(CC50/IC50);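 on SI human HSV-2 G: ratio of CC50 to antiviral IC50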
[2] = system: Active substance-resistant HSV-1 (F) mutants; experiment: microbe, parasite or virus in culture; details: Human alphaherpesvirus 1, read-out: IC50 Active substance-resistant HSV-1 (F) mutants
HSV-2 MS = experiment: in vivo lethal challenge model, HSV-2 MS; details: for ED50: Human alphaherpesvirus 2, in Mus musculus, po, 120 h, read-out: in vivo lethal challenge model HSV-2 MS ED50, p.o., mice, 3 times a day for 5 days, survival; for in vivo lethal challenge model HSV-2 MS ED50: p.o., mice, 3 times a day for 5 days, survival
Procedure: (§1) 6-week old female mice, strain BALB/cABom, were purchased from a commercial breeder (Bomholtgard Breeding and Research Centre Ltd).
(§2) The animals were anaesthetized with diethyl ether (Merck) in a sealed glass vessel. 50 μl of a dilution of the virus stock (dose for infection 5×10^4 Pfu) were introduced with an Eppendorf pippette into the nose of the anaesthetized animals. This dose leads to death of 90-100% of the animals due to a generalized infection with prominent respiratory and central nervous symptoms after on average between 5 and 8 days.
(§3) 6 hours after the infection, the animals were treated with doses of 0.1-100 mg/kg of body weight 3 times day at 7.00 h, 14.00 h and 19 h over a period of 5 days. The substances were dissolved in DMSO and resuspended in Tylose/PBS (Hoechst) (final concentration 1.5% DMSO, 0.5% Tylose in PBS).
(§4) After the last administration, the animals were observed further and the times of death were recorded.

HSV-1 Walkie = experiment: in vivo lethal challenge model, HSV-1 Walki; details: for ED50: Human alphaherpesvirus 1, in Mus musculus, po, 120 h, read-out: in vivo lethal challenge model HSV-1 Walkie ED50; for in vivo lethal challenge model HSV-1 Walkie ED50: p.o., mice, 3 times a day for 5 days, survival
Procedure: as §1, §2, §3, §4

PRV = experiment: cells; assay type: cell-based, porcine (PRV); details: for IC50: read-out: IC50 porcine PRV
BHV = experiment: in vitro viral replication assay, bovine BHV; assay type: cell-based; details: for IC50: in vitro viral replication assay; for SI bovine BHV: selectivity index SI=(CC50/IC50);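 on SI bovine BHV: ratio of CC50 to antiviral IC50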
[3] = system: clinical isolates (39 HSV-1 and 19 HSV-2 isolates); experiment: activity on clinical isolates; assay type: cell-based, herpes simplex virus; details: 39 HSV-1 and 19 HSV-2 isolates tested
[4] = target: HSV-1 helicase-primase heterodimer enzyme complex (UL5-UL52-6xHis) (Human herpesvirus 1, UniProt P10189+P10236); experiment: HSV-1 DNA-dependent ATPase assay; details: for type of ATPase inhibition (mechanism): wild-type HSV-1 (F) helicase-primase
Sequence of HSV-1 helicase-primase heterodimer enzyme complex (UL5-UL52-6xHis) (P10236 whole entry): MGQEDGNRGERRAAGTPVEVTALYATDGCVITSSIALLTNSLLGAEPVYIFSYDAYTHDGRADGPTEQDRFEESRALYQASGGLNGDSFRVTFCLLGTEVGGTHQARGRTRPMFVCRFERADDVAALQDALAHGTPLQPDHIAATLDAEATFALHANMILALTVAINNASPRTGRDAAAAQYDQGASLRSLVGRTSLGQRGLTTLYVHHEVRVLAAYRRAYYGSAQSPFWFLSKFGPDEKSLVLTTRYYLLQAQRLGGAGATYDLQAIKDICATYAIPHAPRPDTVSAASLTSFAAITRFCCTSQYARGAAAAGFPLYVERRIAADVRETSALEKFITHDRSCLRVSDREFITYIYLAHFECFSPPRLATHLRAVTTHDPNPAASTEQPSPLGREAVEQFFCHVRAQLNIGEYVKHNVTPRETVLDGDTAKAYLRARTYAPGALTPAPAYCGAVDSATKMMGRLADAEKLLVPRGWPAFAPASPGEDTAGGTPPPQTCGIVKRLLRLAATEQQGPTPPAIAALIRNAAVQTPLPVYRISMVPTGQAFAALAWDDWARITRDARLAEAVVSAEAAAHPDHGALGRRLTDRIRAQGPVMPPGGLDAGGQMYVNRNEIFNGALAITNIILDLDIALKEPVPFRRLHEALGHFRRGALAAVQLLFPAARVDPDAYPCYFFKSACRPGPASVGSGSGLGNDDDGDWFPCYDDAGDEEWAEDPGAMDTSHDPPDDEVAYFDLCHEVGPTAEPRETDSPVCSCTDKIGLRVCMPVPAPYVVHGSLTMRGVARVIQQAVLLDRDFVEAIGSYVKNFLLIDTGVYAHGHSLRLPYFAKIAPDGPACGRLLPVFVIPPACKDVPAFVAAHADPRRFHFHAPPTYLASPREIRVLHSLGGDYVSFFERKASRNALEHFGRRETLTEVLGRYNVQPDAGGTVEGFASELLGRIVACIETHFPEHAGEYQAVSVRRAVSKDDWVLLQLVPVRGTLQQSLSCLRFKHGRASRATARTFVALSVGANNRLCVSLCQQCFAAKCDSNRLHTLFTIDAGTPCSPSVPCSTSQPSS
Sequence of HSV-1 helicase-primase heterodimer enzyme complex (UL5-UL52-6xHis) (P10189 whole entry): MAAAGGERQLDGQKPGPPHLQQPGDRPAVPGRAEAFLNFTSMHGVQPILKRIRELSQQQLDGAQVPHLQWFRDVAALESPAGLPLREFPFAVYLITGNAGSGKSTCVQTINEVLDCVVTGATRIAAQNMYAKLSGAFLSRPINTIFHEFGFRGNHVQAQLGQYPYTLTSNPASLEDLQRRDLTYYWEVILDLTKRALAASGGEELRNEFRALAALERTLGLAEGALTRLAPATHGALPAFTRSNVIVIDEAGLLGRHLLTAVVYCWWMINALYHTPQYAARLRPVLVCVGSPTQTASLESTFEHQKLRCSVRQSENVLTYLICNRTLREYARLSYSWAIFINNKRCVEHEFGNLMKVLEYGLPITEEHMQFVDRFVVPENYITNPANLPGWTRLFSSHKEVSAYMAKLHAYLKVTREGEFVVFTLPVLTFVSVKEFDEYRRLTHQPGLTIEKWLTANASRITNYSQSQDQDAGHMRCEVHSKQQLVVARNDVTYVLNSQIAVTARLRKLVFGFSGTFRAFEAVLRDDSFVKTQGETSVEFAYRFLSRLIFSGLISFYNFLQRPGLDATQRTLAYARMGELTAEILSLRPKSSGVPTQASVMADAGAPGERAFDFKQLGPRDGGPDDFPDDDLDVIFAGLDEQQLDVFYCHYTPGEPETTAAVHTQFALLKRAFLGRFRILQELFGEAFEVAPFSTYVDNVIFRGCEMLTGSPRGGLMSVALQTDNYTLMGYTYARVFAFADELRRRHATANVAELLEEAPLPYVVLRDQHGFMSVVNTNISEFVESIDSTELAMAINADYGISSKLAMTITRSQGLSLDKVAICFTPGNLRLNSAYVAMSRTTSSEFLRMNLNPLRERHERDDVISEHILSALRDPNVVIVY
Source text: HSV-1 DNA-dependent ATPase assay (this in vitro assay permits testing for inhibition of the HSV-1 helicase-primase).
The HSV-1 helicase-primase heterodimer enzyme complex was [lacuna] with the aid of the recombinant baculovirus expression system in doubly infected Sf9 (Spodoptera frugiperda) cells. One recombinant baculovirus codes for the UL5 helicase gene and the second virus codes for the manipulated UL52-6×His primase gene.
The genes were amplified from the HSV-1 (F) genome by PCR (American Tissue Culture Collection ATCC VR-733) and cloned into the baculovirus (UL5→pFASTBAC1; UL52→pFASTHTb) as described in detail in the instruction manual for BAC-TO-BAC Baculovirus Expression Systems, Life-Technologies.
The purified heterodimeric helicase-primase complex (200 ng) was incubated with 1 μg of DNA (Sigma D3287 or D8681) in 20 mM HEPES (pH 7.6; 4-(2-hydroxyethyl)-1-piperazineethanesulphonic acid), 5 mM MgCl2, 0.2-5 mM ATP, 100 μg of BSA (bovine serum albumin) per ml, 10% glycerol, 1 mM DTT (DL-dithiothreitol) and, where appropriate, inhibitor in the appropriate concentration at 37° C. for 60 min.
The inhibition of the DNA-dependent ATPase activity was calculated from the change in the absorption in the presence and absence of inhibitor.
The Ki values were calculated with the assistance of the Sigma Plot software 4.0 and the method of nonlinear curve regression.
For this purpose, the ATPase activity of the helicase-primase heterodimer (detection through formation of inorganic phosphate (Pi)) was measured in the presence of saturated DNA concentrations and varying ATP and inhibitor concentrations, as explained in the ATPase assay section.

[5] = system: Active substance-resistant HSV-1 (F) mutants; details: read-out: IC50 Active substance-resistant HSV-1 (F) mutants
[6] = in vitro viral replication assay, read-out: IC50 Wild-type HSV-1 (F)

Nc1nc2c(ncn2COCCO)c(=O)[nH]1 [Acyclovir, acyclovir, reference compound]
IC50 (Wild-type HSV-1 (F); Human alphaherpesvirus 1, in vitro viral replication assay, read-out: IC50 Wild-type HSV-1 (F)): 1000 nM
SI Wild-type HSV-1 (F) (Wild-type HSV-1 (F)): 250
IC50 ([1]; Human alphaherpesvirus 1, read-out: IC50 Acyclovir-resistant HSV-1 (F) mutants): 125000 nM
IC50 (HSV-2 G; Human alphaherpesvirus 2): 4000 nM
SI human HSV-2 G (HSV-2 G): 125
IC50 [2]: 1000 nM
ED50 (HSV-2 MS): 16 mg/kg
ED50 (HSV-1 Walkie): 22 mg/kg

Cc1nc(N(C)C(=O)Cc2ccc(-c3ccccn3)cc2)sc1S(N)(=O)=O [Example 7]
IC50 (Wild-type HSV-1 (F); Human alphaherpesvirus 1, read-out: IC50 Wild-type HSV-1 (F)): 20 nM
SI Wild-type HSV-1 (F) (Wild-type HSV-1 (F)): 2500
IC50 (HSV-2 G; Human alphaherpesvirus 2): 20 nM
SI human HSV-2 G (HSV-2 G): 3000
SI porcine PRV (PRV): >50
IC50 (PRV; Sus scrofa): 5000 nM
IC50 (BHV; Bos taurus): 125 nM
SI bovine BHV (BHV): 240
activity on clinical isolates [3]: active on all the clinical isolates tested to date
Ki [4]: 30 nM
type of ATPase inhibition (mechanism) [4]: uncom-
ED50 (HSV-2 MS): ~0.5 mg/kg
ED50 (HSV-1 Walkie): 0.5 mg/kg

CNS(=O)(=O)c1sc(N(C)C(=O)Cc2ccc(-c3ccccc3)cc2)nc1C [Example 4]
IC50 (Wild-type HSV-1 (F); [6]): 0.5 nM
SI Wild-type HSV-1 (F) (Wild-type HSV-1 (F)): 1E+05
IC50 (HSV-2 G): 50 nM
SI human HSV-2 G (HSV-2 G): 5000
SI porcine PRV (PRV): 66
IC50 (PRV): 3000 nM
IC50 (BHV): 150 nM
SI bovine BHV (BHV): 400
activity on clinical isolates [3]: active on all the clinical isolates tested to date
IC50 ([5]; Mutant 2 (UL5 K356N)): > 250000 nM
IC50 ([5]; Mutant 6 (UL52 A897T)): > 1000 nM
in vivo lethal challenge model HSV-2 MS ED50 (HSV-2 MS): 3 mg/kg
in vivo lethal challenge model HSV-1 Walkie ED50 (HSV-1 Walkie): 1 mg/kg

Cc1nc(N(C)C(=O)Cc2ccc(-c3ccccc3)cc2)sc1S(N)(=O)=O [Example 5]
IC50 (HSV-2 G): 5 nM
SI human HSV-2 G (HSV-2 G): 50000
SI porcine PRV (PRV): 13
IC50 (PRV): 8000 nM
IC50 (BHV): 50 nM
SI bovine BHV (BHV): 5000
activity on clinical isolates [3]: active on all the clinical isolates tested to date
in vivo lethal challenge model HSV-2 MS ED50 (HSV-2 MS): 1.1 mg/kg
in vivo lethal challenge model HSV-1 Walkie ED50 (HSV-1 Walkie): 0.5 mg/kg

CNS(=O)(=O)c1sc(N(C)C(=O)Nc2ccc(N3CCOCC3)cc2)nc1C [Example 2]
IC50 (Wild-type HSV-1 (F); [6]): 500 nM
SI Wild-type HSV-1 (F) (Wild-type HSV-1 (F)): 400
IC50 (HSV-2 G): 1500 nM
SI human HSV-2 G (HSV-2 G): 200
in vivo lethal challenge model HSV-2 MS ED50 (HSV-2 MS): weak
in vivo lethal challenge model HSV-1 Walkie ED50 (HSV-1 Walkie): 26 mg/kg

Cc1nc(N(C)C(=O)Nc2ccc(N3CCOCC3)cc2)sc1S(=O)(=O)N(C)C [Example 1]
IC50 (Wild-type HSV-1 (F); [6]): 750 nM
SI Wild-type HSV-1 (F) (Wild-type HSV-1 (F)): 350
IC50 ([1]; in vitro viral replication assay, read-out: IC50 Acyclovir-resistant HSV-1 (F) mutants): 750 nM
IC50 (HSV-2 G): 1500 nM
SI human HSV-2 G (HSV-2 G): 167
SI porcine PRV (PRV): >63
IC50 (PRV): 4000 nM
IC50 (BHV): 1500 nM
SI bovine BHV (BHV): >167
activity on clinical isolates [3]: active on all the clinical isolates tested to date
IC50 ([5]; Mutant 1 (UL5 M355V, UL5 V6621, UL52 A897T)): > 250000 nM
in vivo lethal challenge model HSV-2 MS ED50 (HSV-2 MS): weak
in vivo lethal challenge model HSV-1 Walkie ED50 (HSV-1 Walkie): 60 mg/kg

CNS(=O)(=O)c1sc(N(C)C(=O)Nc2ccc(-c3ccccc3)cc2)nc1C [Example 3]
IC50 (Wild-type HSV-1 (F); [6]): 1 nM
SI Wild-type HSV-1 (F) (Wild-type HSV-1 (F)): 3E+05
IC50 (HSV-2 G): 5 nM
SI human HSV-2 G (HSV-2 G): 25000
IC50 ([5]; mutant not named): > 250000 nM
in vivo lethal challenge model HSV-2 MS ED50 (HSV-2 MS): 11 mg/kg
in vivo lethal challenge model HSV-1 Walkie ED50 (HSV-1 Walkie): 8 mg/kg

CC(C)[C@H](N)C(=O)OCCOCn1cnc2c(=O)[nH]c(N)nc21 [Valtrex, reference compound]
ED50 (HSV-2 MS): 14 mg/kg
ED50 (HSV-1 Walkie): 17 mg/kg

Cc1nc(N(C)C(=O)Cc2ccc(-c3cc(F)ccc3F)cc2)sc1S(N)(=O)=O [Example 6]
SI porcine PRV (PRV): 133
IC50 (PRV): 1500 nM
IC50 (BHV): 30 nM
SI bovine BHV (BHV): 6660
activity on clinical isolates [3]: active on all the clinical isolates tested to date
IC50 ([5]; M1 + M2 (UL5 G352V)): > 125000 nM
Concentration of liberated inorganic phosphate ([4]; inhibitor 0.00128 μM, ATP 0.3 mM): 0.066 mM
Concentration of liberated inorganic phosphate ([4]; inhibitor 0.00128 μM, ATP 0.4 mM): 0.067 mM
Concentration of liberated inorganic phosphate ([4]; inhibitor 0.00128 μM, ATP 0.6 mM): 0.085 mM
Concentration of liberated inorganic phosphate ([4]; inhibitor 0.00128 μM, ATP 0.8 mM): 0.099 mM
Concentration of liberated inorganic phosphate ([4]; inhibitor 0.00128 μM, ATP 1 mM): 0.108 mM
Concentration of liberated inorganic phosphate ([4]; inhibitor 0.00128 μM, ATP 3 mM): 0.127 mM
Concentration of liberated inorganic phosphate ([4]; inhibitor 0.0064 μM, ATP 0.3 mM): 0.040 mM
Concentration of liberated inorganic phosphate ([4]; inhibitor 0.0064 μM, ATP 0.4 mM): 0.045 mM
Concentration of liberated inorganic phosphate ([4]; inhibitor 0.0064 μM, ATP 0.6 mM): 0.062 mM
Concentration of liberated inorganic phosphate ([4]; inhibitor 0.0064 μM, ATP 0.8 mM): 0.064 mM
Concentration of liberated inorganic phosphate ([4]; inhibitor 0.0064 μM, ATP 1 mM): 0.071 mM
Concentration of liberated inorganic phosphate ([4]; inhibitor 0.0064 μM, ATP 3 mM): 0.113 mM
Concentration of liberated inorganic phosphate ([4]; inhibitor 0.032 μM, ATP 0.3 mM): 0.025 mM
Concentration of liberated inorganic phosphate ([4]; inhibitor 0.032 μM, ATP 0.4 mM): 0.029 mM
Concentration of liberated inorganic phosphate ([4]; inhibitor 0.032 μM, ATP 0.6 mM): 0.037 mM
Concentration of liberated inorganic phosphate ([4]; inhibitor 0.032 μM, ATP 0.8 mM): 0.044 mM
Concentration of liberated inorganic phosphate ([4]; inhibitor 0.032 μM, ATP 1 mM): 0.055 mM
Concentration of liberated inorganic phosphate ([4]; inhibitor 0.032 μM, ATP 3 mM): 0.085 mM
Concentration of liberated inorganic phosphate ([4]; inhibitor 0.16 μM, ATP 0.3 mM): 0.017 mM
Concentration of liberated inorganic phosphate ([4]; inhibitor 0.16 μM, ATP 0.4 mM): 0.022 mM
Concentration of liberated inorganic phosphate ([4]; inhibitor 0.16 μM, ATP 0.6 mM): 0.029 mM
Concentration of liberated inorganic phosphate ([4]; inhibitor 0.16 μM, ATP 0.8 mM): 0.033 mM
Concentration of liberated inorganic phosphate ([4]; inhibitor 0.16 μM, ATP 1 mM): 0.040 mM
Concentration of liberated inorganic phosphate ([4]; inhibitor 0.16 μM, ATP 3 mM): 0.066 mM
Concentration of liberated inorganic phosphate ([4]; inhibitor 0.8 μM, ATP 0.3 mM): 0.010 mM
Concentration of liberated inorganic phosphate ([4]; inhibitor 0.8 μM, ATP 0.4 mM): 0.013 mM
Concentration of liberated inorganic phosphate ([4]; inhibitor 0.8 μM, ATP 0.6 mM): 0.019 mM
Concentration of liberated inorganic phosphate ([4]; inhibitor 0.8 μM, ATP 0.8 mM): 0.023 mM
Concentration of liberated inorganic phosphate ([4]; inhibitor 0.8 μM, ATP 1 mM): 0.027 mM
Concentration of liberated inorganic phosphate ([4]; inhibitor 0.8 μM, ATP 3 mM): 0.054 mM
Concentration of liberated inorganic phosphate ([4]; inhibitor 4 μM, ATP 0.3 mM): 0.006 mM
Concentration of liberated inorganic phosphate ([4]; inhibitor 4 μM, ATP 0.4 mM): 0.007 mM
Concentration of liberated inorganic phosphate ([4]; inhibitor 4 μM, ATP 0.6 mM): 0.010 mM
Concentration of liberated inorganic phosphate ([4]; inhibitor 4 μM, ATP 0.8 mM): 0.012 mM
Concentration of liberated inorganic phosphate ([4]; inhibitor 4 μM, ATP 1 mM): 0.018 mM
Concentration of liberated inorganic phosphate ([4]; inhibitor 4 μM, ATP 3 mM): 0.044 mM
Concentration of liberated inorganic phosphate ([4]; inhibitor 20 μM, ATP 0.3 mM): 0.004 mM
Concentration of liberated inorganic phosphate ([4]; inhibitor 20 μM, ATP 0.4 mM): 0.004 mM
Concentration of liberated inorganic phosphate ([4]; inhibitor 20 μM, ATP 0.6 mM): 0.006 mM
Concentration of liberated inorganic phosphate ([4]; inhibitor 20 μM, ATP 0.8 mM): 0.010 mM
Concentration of liberated inorganic phosphate ([4]; inhibitor 20 μM, ATP 1 mM): 0.008 mM
Concentration of liberated inorganic phosphate ([4]; inhibitor 20 μM, ATP 3 mM): 0.030 mM
Concentration of liberated inorganic phosphate ([4]; inhibitor 100 μM, ATP 0.3 mM): 0.005 mM
Concentration of liberated inorganic phosphate ([4]; inhibitor 100 μM, ATP 0.4 mM): 0.006 mM
Concentration of liberated inorganic phosphate ([4]; inhibitor 100 μM, ATP 0.6 mM): 0.008 mM
Concentration of liberated inorganic phosphate ([4]; inhibitor 100 μM, ATP 0.8 mM): 0.008 mM
Concentration of liberated inorganic phosphate ([4]; inhibitor 100 μM, ATP 1 mM): 0.014 mM
Concentration of liberated inorganic phosphate ([4]; inhibitor 100 μM, ATP 3 mM): 0.032 mM
Ki ([4]; read-out: in vitro ATPase inhibition wild-type HSV-1 (F) Ki, nonlinear curve regression): 7 nM
type of ATPase inhibition (mechanism) [4]: un-
in vivo lethal challenge model HSV-2 MS ED50 (HSV-2 MS): 0.5 mg/kg
in vivo lethal challenge model HSV-1 Walkie ED50 (HSV-1 Walkie): >0.5 mg/kg
